In data set [1] the target is T1, LcOe 229 (Oenococcus oeni, UniProt Q04HQ8).
T1 construct: gene OEOE_0009
T1 sequence (Q04HQ8 1-488): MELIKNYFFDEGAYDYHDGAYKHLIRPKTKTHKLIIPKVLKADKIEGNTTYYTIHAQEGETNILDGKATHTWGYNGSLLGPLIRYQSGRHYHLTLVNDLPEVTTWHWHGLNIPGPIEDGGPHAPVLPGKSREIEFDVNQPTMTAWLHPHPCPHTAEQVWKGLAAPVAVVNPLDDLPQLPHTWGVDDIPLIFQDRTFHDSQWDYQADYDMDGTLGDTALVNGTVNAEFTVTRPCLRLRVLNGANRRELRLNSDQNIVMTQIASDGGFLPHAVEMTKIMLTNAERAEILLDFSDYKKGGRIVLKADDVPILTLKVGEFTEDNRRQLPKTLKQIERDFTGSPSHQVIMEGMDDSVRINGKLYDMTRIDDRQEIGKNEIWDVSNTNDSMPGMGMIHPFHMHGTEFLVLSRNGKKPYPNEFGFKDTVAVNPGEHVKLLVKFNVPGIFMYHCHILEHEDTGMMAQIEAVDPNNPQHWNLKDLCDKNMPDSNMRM
The following applies: read-out: % residual activity at 1 mM.

Data set [2] deals with T1, LcOe 229. The class given is biochemical. The following applies: 2 mM ABTS, 0.1 mM CuSO4, McIlvaine buffer pH 2.5.
Substrate in data set [3]: COc1cccc(OC)c1O
Description: oxidation followed at OD468, microplate, initial rates. The class given is biochemical, Oenococcus oeni. The following applies: McIlvaine buffer pH 8, 24 °C, hyperbolic.

One may read the Vmax as the top rate of the reaction or transport when substrate is in excess. For orientation: kcat means the maximal rate divided by the concentration of active sites. As a reminder, the kcat/Km is the second-order rate constant that governs catalysis at low substrate concentration.

Consider `c1ccc(-c2ccccn2)nc1` [2,2′-bipyridyl], for which, in data set [1], the remaining activity at 1000 µM was found to be 94%. Still for that read-out and setting: next, `NNC(N)=O` [semicarbazide]: under 15%. Regarding `C#CCN(C)CCCOc1ccc(Cl)cc1Cl` [clorgyline], in data set [2], the “% residual activity at 1 mM” value is “observed with ZnCl2, EDTA, pargyline, EDC, deprenyl, clorgyline, and NaCl”.

`CCN=C=NCCCN(C)C` [EDC]: the “% residual activity at 1 mM” value in data set [2] was “observed with ZnCl2, EDTA, pargyline, EDC, deprenyl, clorgyline, and NaCl”. For `NC1CC1` [cyclopropylamine], the remaining activity at 1000 µM in data set [1] turned out to be 77%. As for `C#CCN(C)Cc1ccccc1` [pargyline], the “% residual activity at 1 mM” value in data set [2] was “observed with ZnCl2, EDTA, pargyline, EDC, deprenyl, clorgyline, and NaCl”. For the molecule `C#CCN[C@@H]1CCc2ccccc21` [rasagiline], in data set [1], the remaining activity at 1000 µM worked out at 65%. Regarding `C#CCN(C)C(C)Cc1ccccc1` (stereo not drawn) [deprenyl], in data set [2], the “% residual activity at 1 mM” value is “observed with ZnCl2, EDTA, pargyline, EDC, deprenyl, clorgyline, and NaCl”.

B1: LcOe 229 (Oenococcus oeni PSU-1) (protein)
chain: T1 sequence (Q04HQ8 1-488)
notes: full length, 488 residues, 55544 Da, in pET-28a(+) NheI/BamHI, N-terminal His tag (thrombin-cleavable; cleavage told for crystallography), E. coli BL21(DE3)/pGro7; Ni-NTA; monomer; PCR fragment given as 1641 bp
With B1, in data set [3], the Km was 0.73 (±0.17) mM, the Vmax was 0.01 µmol/min/mg, the kcat is 0.01 s⁻¹ and the kcat/Km is 10 M⁻¹ s⁻¹.

The values are drawn from PMC11312515, “Biochemical and Structural Characterization of a Novel Psychrophilic Laccase (Multicopper Oxidase) Discovered from Oenococcus oeni 229 (ENOLAB 4002)” (International Journal of Molecular Sciences, 2024).
